Laboratory results as given in patent US20180027807A1, “Vermin Control Compositions” (priority 2013, published 2018).
Where two headings read alike, the source gives them in different places.

Legend:
[1] = cited from earlier work
[2] = crystalline form, 7 days, cited from earlier work
[3] = Accelerated stability study of cholecalciferol in DMSO/ethanol formulations; format: physicochemical; conditions: across all formulations, 25° C.±2° C./60% RH±5%
Procedure: The stability of cholecalciferol in the chosen penetration enhancer is an important consideration when analysing the physical properties of the formulation. An unstable formulation which causes cholecalciferol to degrade would result in delivery of sub-lethal doses. […] Conversely, cholecalciferol solutions in surfactants and oils are said to be stable over long periods at 40° C. In order to assess the stability of cholecalciferol when combined with the chosen penetration enhancers an accelerated stability study was performed. In total, 6 formulations with varying types and concentration of penetration enhancers were stored in an accelerated stability cabinet at 25° C.±2° C./60% RH±5%. Each formulation contained 10% (w/v) cholecalciferol. Each formulation was made up a day before the intended start date of the stability study and left in a water bath/shaker overnight at 25° C. to allow adequate time for the cholecalciferol to dissolve. Amber bottles were used to prevent photo-degradation and parafilm was used to seal round the screw lid to prevent oxidative degradation from the air. At each sampling point the lid was removed and 200 μl taken; the sample was serially diluted 8 times (256-fold) before analysis with HPLC.
All formulations contain 10% (w/v) cholecalciferol.

C=C1CC[C@H](O)C/C1=C/C=C1\CCC[C@]2(C)[C@@H]([C@H](C)CCCC(C)C)CC[C@@H]12 [cholecalciferol]
Solubility (class) ([1]; cholecalciferol in ethanol, classification taken from the British Pharmacopeia): freely soluble (a solubility between 1-10 ml/g is classed as freely soluble)
solubility in water ([1]; cholecalciferol in water, stated): practically insoluble
decrease in potency ([2]; 40° C./45% RH): 35%
decrease in potency ([2]; 40° C./85% RH): 85%
degradation of cholecalciferol ([3]; during the first 10 days): 16.83%
degradation of cholecalciferol (drop in potency) ([3]; over 50 days, 10% (w/v) in DMSO/ethanol ratios, amber bottles): 27.11%
